Series [1] deals with HDF (human dermal fibroblast). Description: Proliferation and growth of normal cells, HDF. In kind it is cell-based. The conditions noted are these: data not shown.
Series [2] concerns the target T1, fruit fly pol ɛ (Drosophila melanogaster, UniProt Q9VCN1).
T1 construct: purified from early embryos of Drosophila melanogaster; from tissue; host or cells: early embryos of Drosophila melanogaster
Description: DNA polymerase assay, insect pol ɛ. The note with it: 100 μM. It is filed as biochemical. The text has this:
(§1) Pol α was purified from calf thymus by immuno-affinity column chromatography, as described by Tamai et al.. Recombinant rat pol β was purified from E. coli JMpβ5, as described by Date et al.. The human pol γ catalytic gene was cloned into pFastBac. Histidine-tagged enzyme was expressed using the BAC-TO-BAC HT Baculovirus Expression System according to the supplier’s manual (Life Technologies, MD, USA) and purified using ProBoundresin (Invitrogen Japan, Tokyo, Japan). Human pols δ and ɛ were purified by nuclear fractionation of human peripheral blood cancer cells (Molt-4) using the second subunit of pols δ and ɛ-conjugated affinity column chromatography, respectively. A truncated form of human pol η (residues 1–511) tagged with His6 at its C-terminal was expressed in E. coli cells and purified as described by Kusumoto et al.. A recombinant mouse pol ι tagged with His6 at its C-terminal was expressed and purified by Ni-NTA column chromatography as described elsewhere (Masutani et al., in preparation). […]
(§2) The compounds were dissolved in distilled dimethyl sulfoxide (DMSO) at various concentrations and sonicated for 30 sec. […] Activity without the inhibitor was considered 100%, and the remaining activity at each concentration of the inhibitor was determined relative to this value. […]

Series [3] concerns the target T2, mouse pol ι (Mus musculus, UniProt Q6R3M4).
T2 construct: His6 (C); made in house
Description: DNA polymerase assay, pol ι. It is filed as biochemical.
Description: as §1, §2

For series [4], the target named is T3, bovine DNase I (Bos taurus, UniProt P00639).
T3 construct: Calf thymus TdT and bovine pancreas DNase I were obtained from Stratagene Cloning Systems; purchased Stratagene Cloning Systems (La Jolla, CA, USA); host or cells: bovine pancreas (tissue)
T3 sequence (P00639 23-282): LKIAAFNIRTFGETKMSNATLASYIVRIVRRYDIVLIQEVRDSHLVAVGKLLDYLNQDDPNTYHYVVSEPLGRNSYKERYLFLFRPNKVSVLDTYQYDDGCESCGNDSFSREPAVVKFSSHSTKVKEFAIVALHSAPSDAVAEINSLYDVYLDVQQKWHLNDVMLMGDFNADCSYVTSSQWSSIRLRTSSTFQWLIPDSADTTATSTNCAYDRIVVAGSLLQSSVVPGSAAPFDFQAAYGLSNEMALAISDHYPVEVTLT
The series is described as follows: DNase I assay. It is filed as biochemical. The conditions noted are these: 100 μM.
Description: as §1, with “al..” for “al.. A recombinant mouse pol ι tagged with His6 at its C-terminal was expressed and purified by Ni-NTA column chromatography as described elsewhere (Masutani et al., in preparation).”
The activities of calf primase of pol α, human telomerase, T7 RNA polymerase, mouse IMP dehydrogenase, human DNA topoisomerases I and II, T4 polynucleotide kinase and bovine DNase I were measured in standard assays according to the manufacturer’s specifications, as described by Tamiya-Koizumi et al., Oda et al., Nakayama et al., Mizushina et al., Ishimaru et al., Soltis et al. and Lu et al., respectively.

The subject of series [5] is HUVEC (human umbilical vein endothelial cells). Description: Proliferation and growth of normal cells, HUVEC. In kind it is cell-based. The note with it: data not shown.
For series [6], the system named is HCT116 (colon carcinoma cells). Description: Cancer cell growth, MTT assay, HCT116. In kind it is cell-based, human. Here is the method:
Figure 5. (A) Human cancer cell growth inhibition dose-response curves of 3-O-methyl-funicone (1). Various concentrations (0 to 150 μM) of compound 1 were incubated with human colon carcinoma (HCT116) cells (circle) and human cervix carcinoma (HeLa) cells (square) for 24 h. Rate of cell growth was determined by MTT assay as described in the Experimental section. Data are shown as the means ± SEM of five independent experiments. (B) Clonogenic survival of UV-treated HeLa cells by compound 1. Various concentrations (0 to 100 μM) of compound 1 were incubated with 10 J/m^2 UV-treated (closed circle) or untreated (open circle) HeLa cells. After 7 days, the number of colonies in each treatment group was counted. Values are the means ± SEM of two independent experiments.
Human colon carcinoma cell line, HCT116, was a kind gift from Dr. Bert Vogelstein (Johns Hopkins University, Baltimore, […], USA). Human cervix carcinoma cell line, HeLa, was obtained from Health Science Research Resources Bank (Osaka, Japan). The cells were maintained in McCoy’s 5A medium supplemented with 10% FBS, sodium bicarbonate (2 g/L) and streptomycin (100 μg/mL). The cells were cultured at 37 °C in standard medium in a humidified atmosphere of 5% CO2-95% air. […] After incubation for 24 h, the survival rate was determined by MTT (3-(4,5-dimethylthiazol-2-yl)-2,5-diphenyl tetrazolium bromide) assay.

Series [7] concerns cauliflower pol α. Description: DNA polymerase assay, plant pol α. In kind it is biochemical. The note with it: 100 μM.
Description: as §1, §2

pIC50: −log10 of the molar value.

T2 sequence (Q6R3M4 whole entry): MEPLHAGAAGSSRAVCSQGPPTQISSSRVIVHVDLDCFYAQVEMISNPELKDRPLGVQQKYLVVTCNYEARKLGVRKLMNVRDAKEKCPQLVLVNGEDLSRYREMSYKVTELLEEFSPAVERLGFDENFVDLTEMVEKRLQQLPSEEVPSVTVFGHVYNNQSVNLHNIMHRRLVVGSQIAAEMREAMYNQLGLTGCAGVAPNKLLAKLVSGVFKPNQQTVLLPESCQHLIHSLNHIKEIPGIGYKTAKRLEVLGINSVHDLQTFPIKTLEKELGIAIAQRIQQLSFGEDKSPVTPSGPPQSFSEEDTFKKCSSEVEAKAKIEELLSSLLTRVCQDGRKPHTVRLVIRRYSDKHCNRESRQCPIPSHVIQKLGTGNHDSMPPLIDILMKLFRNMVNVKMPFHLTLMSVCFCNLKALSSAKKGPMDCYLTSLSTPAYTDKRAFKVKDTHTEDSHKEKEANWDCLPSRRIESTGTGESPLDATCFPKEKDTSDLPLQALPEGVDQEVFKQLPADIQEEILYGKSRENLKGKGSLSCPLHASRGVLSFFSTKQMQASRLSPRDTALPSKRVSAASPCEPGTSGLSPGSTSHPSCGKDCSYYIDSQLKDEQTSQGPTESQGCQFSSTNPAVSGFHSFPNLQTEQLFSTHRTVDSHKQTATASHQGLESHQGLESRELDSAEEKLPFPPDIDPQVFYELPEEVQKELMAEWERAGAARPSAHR
T1 sequence (Q9VCN1 whole entry): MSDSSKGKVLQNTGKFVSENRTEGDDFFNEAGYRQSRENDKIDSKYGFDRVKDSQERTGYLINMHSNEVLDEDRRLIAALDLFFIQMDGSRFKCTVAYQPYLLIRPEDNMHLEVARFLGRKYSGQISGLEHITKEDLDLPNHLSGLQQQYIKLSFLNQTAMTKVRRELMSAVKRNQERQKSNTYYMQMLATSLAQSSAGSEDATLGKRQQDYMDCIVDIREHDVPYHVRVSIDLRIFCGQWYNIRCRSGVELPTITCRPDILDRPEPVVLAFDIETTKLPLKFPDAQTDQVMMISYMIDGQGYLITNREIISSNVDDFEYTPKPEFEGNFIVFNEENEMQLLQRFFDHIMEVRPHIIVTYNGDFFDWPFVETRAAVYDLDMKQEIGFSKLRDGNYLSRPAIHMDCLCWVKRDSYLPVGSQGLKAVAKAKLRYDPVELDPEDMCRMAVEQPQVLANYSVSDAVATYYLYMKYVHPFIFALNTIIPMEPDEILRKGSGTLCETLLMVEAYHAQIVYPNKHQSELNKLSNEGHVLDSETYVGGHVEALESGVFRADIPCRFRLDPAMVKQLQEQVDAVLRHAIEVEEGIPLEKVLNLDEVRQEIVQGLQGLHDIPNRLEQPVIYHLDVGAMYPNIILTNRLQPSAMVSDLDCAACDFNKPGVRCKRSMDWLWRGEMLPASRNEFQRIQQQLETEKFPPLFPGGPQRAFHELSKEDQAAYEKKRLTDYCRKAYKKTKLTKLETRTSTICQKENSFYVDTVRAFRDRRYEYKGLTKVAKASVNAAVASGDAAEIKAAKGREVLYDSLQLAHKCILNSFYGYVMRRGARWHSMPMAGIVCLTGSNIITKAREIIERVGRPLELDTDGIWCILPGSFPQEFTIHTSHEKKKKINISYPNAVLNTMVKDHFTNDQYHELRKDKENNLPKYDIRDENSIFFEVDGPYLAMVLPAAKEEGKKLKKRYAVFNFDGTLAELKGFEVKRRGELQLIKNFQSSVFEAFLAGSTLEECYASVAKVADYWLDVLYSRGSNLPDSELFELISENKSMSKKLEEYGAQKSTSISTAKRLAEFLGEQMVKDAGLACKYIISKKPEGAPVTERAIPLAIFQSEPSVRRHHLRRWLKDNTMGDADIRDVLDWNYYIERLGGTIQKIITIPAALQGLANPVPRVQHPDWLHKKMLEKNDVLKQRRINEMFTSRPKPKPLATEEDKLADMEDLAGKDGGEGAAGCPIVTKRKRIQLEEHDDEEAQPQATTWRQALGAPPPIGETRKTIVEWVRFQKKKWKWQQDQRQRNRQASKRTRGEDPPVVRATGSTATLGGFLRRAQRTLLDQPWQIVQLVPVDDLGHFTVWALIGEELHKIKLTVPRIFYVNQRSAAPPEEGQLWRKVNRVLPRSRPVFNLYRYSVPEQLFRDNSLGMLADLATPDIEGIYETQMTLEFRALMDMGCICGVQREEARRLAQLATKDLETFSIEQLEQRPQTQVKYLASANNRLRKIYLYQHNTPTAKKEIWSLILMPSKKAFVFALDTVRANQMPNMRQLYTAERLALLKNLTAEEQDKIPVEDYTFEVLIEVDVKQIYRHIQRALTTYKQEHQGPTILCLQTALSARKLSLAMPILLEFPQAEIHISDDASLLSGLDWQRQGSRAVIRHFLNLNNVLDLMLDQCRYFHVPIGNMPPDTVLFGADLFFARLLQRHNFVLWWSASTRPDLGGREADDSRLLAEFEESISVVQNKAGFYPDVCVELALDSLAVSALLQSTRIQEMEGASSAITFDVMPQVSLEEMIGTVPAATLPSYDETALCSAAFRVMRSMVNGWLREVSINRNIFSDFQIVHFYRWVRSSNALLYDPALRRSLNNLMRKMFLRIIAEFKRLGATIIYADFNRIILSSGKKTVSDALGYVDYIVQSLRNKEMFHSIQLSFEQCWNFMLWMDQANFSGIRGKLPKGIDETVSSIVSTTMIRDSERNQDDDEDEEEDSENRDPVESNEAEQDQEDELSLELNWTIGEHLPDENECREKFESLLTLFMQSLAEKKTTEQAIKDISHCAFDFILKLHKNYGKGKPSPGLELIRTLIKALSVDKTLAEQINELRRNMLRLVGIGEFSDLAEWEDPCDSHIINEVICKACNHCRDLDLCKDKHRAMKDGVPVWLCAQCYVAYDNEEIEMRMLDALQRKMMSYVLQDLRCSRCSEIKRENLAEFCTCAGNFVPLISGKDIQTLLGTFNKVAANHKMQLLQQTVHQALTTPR

With `C/C=C/c1occ(C(=O)c2c(OC)cc(OC)cc2C(=O)OC)c(=O)c1OC` [compound 1, 3-O-methylfunicone], the “effect on cell proliferation and growth” value in series [1] and in series [5] was “did not influence” in each case. The “effect on fruit fly pol ɛ activity” value in series [2] is given as “hardly influenced”. In addition, the “effect on pol ι activity” value in series [3] (100 μM) is listed as “selectively inhibit”. Moreover, the pIC50 – broadly, the negative decadic logarithm of the IC50, by convention in mol/L – in series [3] (poly(dA)/oligo(dT)18 and dTTP, 0.05 units enzyme, read-out: 50% inhibition of pol ι (IC50)) is 4.46. Moreover, the “effect on bovine DNase I activity” value in series [4] is given as “did not influence”. Also, in series [6] (HCT116, 24 h, MTT assay), the “LD50, cell growth” value turned out to be 63.8 µM. For the same compound, in series [6] (LD50 (HCT116 and HeLa) versus IC50 for Y-family pols), the “cell growth inhibition dose relative to the enzyme inhibitory concentration” value is recorded as 1.3 to 5.1 fold. In addition, the “effect on cauliflower pol α activity” value in series [7] is on record as “no effect”.

(Values after article PMC2810227, “3-O-Methylfunicone, a Selective Inhibitor of Mammalian Y-Family DNA Polymerases from an Australian Sea Salt Fungal Strain” (Marine Drugs, 2009).)
